Target: T1, full length G2019 human LRRK2 (Homo sapiens, UniProt Q5S007, R50H)
T1 construct: made in house; host or cells: HEK293 6E cells transduced with BacMam virus (virus generated in Sf9 cells)
Assay: Full length G2019 human LRRK2 inhibition mass spectrometry assay
Assay type: biochemical
Details: LRRKtide to phospho-LRRKtide conversion, RapidFire MS, 2 mM ATP
Outline: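 Inhibition taken as reduced LRRKtide phosphorylation, quantified by RapidFire-coupled triple-quadrupole MS as product/(product+substrate) peak area. Reaction: 2 mM ATP, 25 μM peptide, ~25 nM full-length G2019 Flag-LRRK2, Hepes pH 7.2 buffer, room temperature for 1 h. 11-point 1-in-4 dilutions from 100 μM; logistic fit gives IC50, reported as pIC50.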

T1 sequence (Q5S007 with tags, fused parts or gaps R50H): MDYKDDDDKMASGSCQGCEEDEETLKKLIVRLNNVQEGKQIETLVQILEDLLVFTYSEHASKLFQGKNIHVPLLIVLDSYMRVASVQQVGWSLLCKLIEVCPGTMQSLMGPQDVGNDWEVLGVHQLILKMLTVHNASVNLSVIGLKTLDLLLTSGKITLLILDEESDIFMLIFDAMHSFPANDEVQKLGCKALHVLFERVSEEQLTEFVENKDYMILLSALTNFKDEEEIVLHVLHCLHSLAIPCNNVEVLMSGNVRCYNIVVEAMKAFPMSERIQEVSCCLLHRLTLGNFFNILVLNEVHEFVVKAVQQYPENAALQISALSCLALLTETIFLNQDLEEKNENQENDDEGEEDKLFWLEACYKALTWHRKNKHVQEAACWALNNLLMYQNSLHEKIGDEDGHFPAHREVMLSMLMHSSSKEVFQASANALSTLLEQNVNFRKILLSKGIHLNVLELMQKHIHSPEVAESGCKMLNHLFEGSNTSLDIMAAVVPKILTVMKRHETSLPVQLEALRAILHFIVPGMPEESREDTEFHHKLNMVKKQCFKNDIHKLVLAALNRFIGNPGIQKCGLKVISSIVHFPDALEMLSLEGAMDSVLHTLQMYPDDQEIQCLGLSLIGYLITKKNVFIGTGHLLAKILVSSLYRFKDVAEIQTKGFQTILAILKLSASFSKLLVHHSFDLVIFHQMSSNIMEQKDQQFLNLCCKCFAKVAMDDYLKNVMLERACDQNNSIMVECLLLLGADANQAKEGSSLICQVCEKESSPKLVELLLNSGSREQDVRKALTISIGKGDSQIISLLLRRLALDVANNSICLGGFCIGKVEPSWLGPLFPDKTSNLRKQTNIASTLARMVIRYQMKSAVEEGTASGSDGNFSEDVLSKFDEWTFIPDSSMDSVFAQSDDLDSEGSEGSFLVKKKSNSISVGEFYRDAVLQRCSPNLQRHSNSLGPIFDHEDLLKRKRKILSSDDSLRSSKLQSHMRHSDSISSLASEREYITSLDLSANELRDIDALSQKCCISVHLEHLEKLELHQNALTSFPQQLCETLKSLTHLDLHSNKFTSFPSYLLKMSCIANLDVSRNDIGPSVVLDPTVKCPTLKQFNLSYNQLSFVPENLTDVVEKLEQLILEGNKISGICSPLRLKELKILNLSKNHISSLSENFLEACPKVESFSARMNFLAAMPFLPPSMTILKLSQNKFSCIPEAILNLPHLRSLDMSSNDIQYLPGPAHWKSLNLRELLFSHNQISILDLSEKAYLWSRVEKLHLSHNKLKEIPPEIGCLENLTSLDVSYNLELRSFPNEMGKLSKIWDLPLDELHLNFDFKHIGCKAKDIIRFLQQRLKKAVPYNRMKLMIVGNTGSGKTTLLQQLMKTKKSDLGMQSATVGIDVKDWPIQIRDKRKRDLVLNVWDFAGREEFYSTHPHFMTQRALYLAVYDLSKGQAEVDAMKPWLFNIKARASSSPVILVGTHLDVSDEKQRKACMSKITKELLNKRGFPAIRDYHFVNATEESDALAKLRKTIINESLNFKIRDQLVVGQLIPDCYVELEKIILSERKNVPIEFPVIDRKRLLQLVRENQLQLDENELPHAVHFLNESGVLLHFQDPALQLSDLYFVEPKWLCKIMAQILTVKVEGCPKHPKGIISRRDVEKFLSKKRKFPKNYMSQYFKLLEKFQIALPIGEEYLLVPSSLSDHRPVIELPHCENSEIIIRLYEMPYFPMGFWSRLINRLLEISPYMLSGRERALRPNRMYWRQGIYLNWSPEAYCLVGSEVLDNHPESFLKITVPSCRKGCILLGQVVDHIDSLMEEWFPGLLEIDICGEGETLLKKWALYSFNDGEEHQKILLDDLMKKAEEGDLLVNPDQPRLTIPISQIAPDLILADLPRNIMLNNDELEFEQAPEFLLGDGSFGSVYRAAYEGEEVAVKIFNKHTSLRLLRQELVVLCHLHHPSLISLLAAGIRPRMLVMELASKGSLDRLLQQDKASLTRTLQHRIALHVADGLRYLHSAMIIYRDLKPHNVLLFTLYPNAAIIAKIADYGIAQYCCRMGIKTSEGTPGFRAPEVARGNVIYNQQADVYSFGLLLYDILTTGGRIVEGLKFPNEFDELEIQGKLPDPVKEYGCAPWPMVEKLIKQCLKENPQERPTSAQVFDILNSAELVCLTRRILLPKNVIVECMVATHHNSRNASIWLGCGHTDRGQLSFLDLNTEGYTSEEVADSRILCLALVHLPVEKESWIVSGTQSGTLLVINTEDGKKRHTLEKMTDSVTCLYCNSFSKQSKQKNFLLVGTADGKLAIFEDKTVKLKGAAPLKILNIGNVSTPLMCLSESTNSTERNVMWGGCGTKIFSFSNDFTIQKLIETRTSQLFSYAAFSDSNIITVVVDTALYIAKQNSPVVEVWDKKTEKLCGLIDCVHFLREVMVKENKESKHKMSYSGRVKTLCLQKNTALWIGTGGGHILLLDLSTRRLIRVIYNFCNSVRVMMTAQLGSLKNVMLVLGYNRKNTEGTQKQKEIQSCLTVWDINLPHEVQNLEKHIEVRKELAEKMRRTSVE

Structure (SMILES)	IC50 [µM]
Cc1c2c(nn1C1CCC(C(F)(F)F)CC1)OCCC(C)Nc1nc(ncc1Cl)N2 (single isomer, unassigned) [E280, 4-Chloro-4,11-dimethyl-5-[4-(trifluoromethyl)cyclohexyl]-8-oxa-2,5,6,12,16,17-hexaazatricyclo[11.3.1.0^3,7] heptadeca-1(16),3,6,13(17),14-pentaene]	≤ 10
CCOC1CNc2nc(ncc2Cl)Nc2c(nn(C3CCOCC3)c2C)OC1 (single isomer, unassigned) [E286, 14-Chloro-10-ethoxy-4-methyl-5-(oxan-4-yl)-8-oxa-2,5,6,12,16,17-hexaazatricyclo[11.3.1.0^3,7]heptadeca-1(16),3,6,13(17),14-pentaene]	≤ 10
Cc1c2c(nn1C1CCOCC1)OCCC(C)Nc1nc(ncc1C(F)(F)F)N2 (single isomer, unassigned) [E290, 4,11-Dimethyl-5-(oxan-4-yl)-14-(trifluoromethyl) -8-oxa-2,5,6,12,16,17-hexaazatricyclo[11.3.1.0^3,7]heptadeca-1(16),3,6,13(17),14-pentaene]	≤ 10
Cc1c2c(nn1C1CCOCC1)OCCC(C1CC1)Nc1nc(ncc1Cl)N2 (single isomer, unassigned) [E292, 14-Chloro-11-cyclopropyl-4-methyl-5-(oxan-4-yl)-8-oxa-2,5,6,12,16,17-hexaazatricyclo[11.3.1.0^3,7]heptadeca-1(16),3,6,13(17),14-pentaene]	≤ 10
Cc1c2c(nn1C1COCCC1(F)F)OCCCNc1nc(ncc1Cl)N2 (single isomer, unassigned) [E303, 14-Chloro-5-(4,4-difluorooxan-3-yl)-4-methyl-8-oxa-2,5,6,12,16,17-hexaazatricyclo[11.3.1.0^3,7]heptadeca-1(16),3,6,13(17),14-pentaene]	≤ 10
Cc1c2c(nn1C1COCCC1(F)F)OCC[C@@H](C)Nc1nc(ncc1Cl)N2 (single isomer, unassigned) [E304]	≤ 0.1
Cc1c2c(nn1C1CCCOC1)OCC(C)CNc1nc(ncc1Cl)N2 (single isomer, unassigned) [E307, 14-Chloro-4,10-dimethyl-5-(oxan-3-yl)-8-oxa-2,5,6,12,16,17-hexaazatricyclo[11.3.1.0^3,7]heptadeca-1(16),3,6, 13(17),14-pentaene]	≤ 0.1
Cc1c2c(nn1C1CCCOC1)OCC(C)CNc1nc(ncc1Cl)N2 (single isomer, unassigned) [E308, 14-Chloro-4,10-dimethyl-5-(oxan-3-yl)-8-oxa-2,5,6,12,16,17-hexaazatricyclo[11.3.1.0^3,7]heptadeca-1(16),3,6, 13(17),14-pentaene]	≤ 0.1
Cc1c2c(nn1C1CCCOC1)OCC(C)CNc1nc(ncc1Cl)N2 (single isomer, unassigned) [E309, 14-Chloro-4,10-dimethyl-5-(oxan-3-yl)-8-oxa-2,5,6,12,16,17-hexaazatricyclo[11.3.1.0^3,7]heptadeca-1(16),3,6, 13(17),14-pentaene]	≤ 0.1
Cc1c2c(nn1C1CC(N3CCC(F)(F)C3)C1)OCCC(C)Nc1nc(ncc1Cl)N2 (single isomer, unassigned) [E315, 14-Chloro-5-[3-(3,3-difluoropyrrolidin-1-yl)cyclobutyl]-4,11-dimethyl-8-oxa-2,5,6,12,16,17-hexaazatricyclo [11.3.1.0^3,7]-heptadeca-1(16),3,6,13(17),14-pentaene]	≤ 10
Cc1c2c(nn1C1CC(N3CCC(F)(F)C3)C1)OCCC(C)Nc1nc(ncc1Cl)N2 (single isomer, unassigned) [E316, 14-Chloro-5-[3-(3,3-difluoropyrrolidin-1-yl)cyclobutyl]-4,11-dimethyl-8-oxa-2,5,6,12,16,17-hexaazatricyclo [11.3.1.0^3,7]-heptadeca-1(16),3,6,13(17),14-pentaene]	≤ 0.1
CCC1CCOc2nn(C3COC3)c(C)c2Nc2ncc(Cl)c(n2)N1 (single isomer, unassigned) [E319, 14-Chloro-11-ethyl-4-methyl-5-(oxetan-3-yl)-8-oxa-2,5,6,12,16,17-hexaazatricyclo[11.3.1.0^3,7]heptadeca-1(16), 3,6,13(17),14-pentaene]	≤ 10
